# Entries after “also recorded” stand apart in the source; their conditions may differ.
# How the values were obtained:
# Type in all cases: cell-based
# [1] = target: T1, CDK9 (Homo sapiens, UniProt P50750); test: Immunoblotting of PATU-8902 LACZ-FKBP12^F36V clone, compound 1 and/or THAL-SNS-032 (Example 7), CDK9; conditions: indicated doses of THAL-SNS-032, 24 hrs, single agent
# T1 construct: endogenous in cells; host or cells: PATU-8902 LACZ-FKBP12^F36V clone
# Protocol: (§1) PATU-8902 LACZ-FKBP12^F36V clone was plated in 6-well format, allowed to adhere overnight, and treated with DMSO and indicated doses of THAL-SNS-032 and/or 500 nM compound 1 for 24 hrs. Following treatment, cells were lysed in RIPA buffer on ice for 60 minutes. Lysates were clarified by centrifugation at 20,000×g for 10 minutes at 4° C. Immunoblotting was performed to determine changes in protein levels with an Odyssey CLx Imager. The indicated antibodies were employed including HA to monitor LACZ-FKBP12^F36V degradation, CDK9 to monitor CDK9 degradation and α-TUBULIN as a loading control.
# [2] = tested on: FKBP12^F36V-KRAS^G12V; test: Immunoblotting of PATU-8902 FKBP12^F36V-KRAS^G12V; KRAS^−/− clone (Example 8), HA; conditions: 50 or 500 nM, 4 hrs
# Protocol: (§2) PATU-8902 FKBP12^F36V-KRAS^G12V; KRAS^−/− clone was plated in 6-well format, allowed to adhere overnight, and treated with 50 nM and 500 nM dTAG molecules for 4 hrs. Following treatment, cells were lysed in RIPA buffer on ice for 60 minutes. Lysates were clarified by centrifugation at 20,000×g for 10 minutes at 4° C. Immunoblotting was performed to determine changes in protein levels with an Odyssey CLx Imager. The indicated antibodies were employed including HA to monitor FKBP12^F36V-KRAS^G12V degradation, total and phosphorylated ERK to evaluate changes in ERK signaling, total and phosphorylated AKT to evaluate changes in AKT signaling and α-TUBULIN as a loading control.
# [3] = tested on: PATU-8902 FKBP12^F36V-KRAS^G12V; KRAS^−/− clone; test: Anti-proliferation via CellTiter-Glo, PATU-8902 FKBP12^F36V-KRAS^G12V; KRAS^−/− clone (Example 11); conditions: 0.00063-20 μM, 72 hrs
# Protocol: (§3) PATU-8902 LACZ-FKBP12^F36V or FKBP12^F36V-KRAS^G12V; KRAS^−/− clones were plated in 384-well format, allowed to adhere overnight, and treated with various dTAG molecules from compound stock plates using a JANUS® Workstation pin tool for 72 hrs. To measure cell viability, CellTilter-Glo® was added to wells for 15 minutes at r.t. and luminescence was measured on an EnVision™ 2104 Multilabel Plate Reader.
# [4] = tested on: PATU-8902 LACZ-FKBP12^F36V clone; test: Anti-proliferation via CellTiter-Glo, PATU-8902 LACZ-FKBP12^F36V control clone (Example 12); conditions: 0.000063-2 μM, 72 hrs
# Protocol: as §3, with “Cell Tilter-Glo®” for “CellTilter-Glo®”
# [5] = tested on: LACZ-FKBP12^F36V; test: Immunoblotting of PATU-8902 LACZ-FKBP12^F36V clone, compound 1 and/or THAL-SNS-032 (Example 7), HA; conditions: 500 nM compound 1, 24 hrs, single agent
# Protocol: as §1
# [6] = tested on: PATU-8902 FKBP12^F36V-KRAS^G12V; KRAS^−/− clone; test: Cell transformation by growth in ultra-low attachment conditions, PATU-8902 FKBP12^F36V-KRAS^G12V; KRAS^−/− clone (Example 13); conditions: 0.000063-2 μM, 120 hrs
# Protocol: as §3, with “format in ultra-low attachment conditions,” for “format,”, “form 3D-spheroids” for “adhere”, “120” for “72”, “transformation, Cell Tilter-Glo®” for “viability, CellTilter-Glo®”, “room temperature” for “r.t.”
# [7] = tested on: FKBP12^F36V-EWS/FLI; test: Immunoblotting of EWS502 FKBP12^F36V-EWS/FLI; EWS/FLI^−/− cells; conditions: dTAG-13 10-5000 nM, compound 1 50-5000 nM, 24 hrs, EWS502 cells
# Protocol: (§4) EWS502 FKBP12^F36V-GFP and FKBP12^F36V-EWS/FLI; EWS/FLP^−/− cells were plated in 6-well format, allowed to adhere overnight, and treated with (10-5000 nM) dTAG-13 or (50-5000 nM) compound 1 for 24 hrs. Following treatment, cells were lysed in Cell Lysis Buffer (Cell Signaling Technology®) on ice for 60 minutes. Lysates were clarified by centrifugation at 20,000×g for 10 minutes at 4° C. Immunoblotting was performed to determine changes in protein levels upon incubation with the appropriate horseradish peroxidase-conjugated secondary antibodies. The indicated antibodies were employed including HA to monitor FKBP12^F36V-GFP or FKBP12^F36V-EWS/FLI degradation and Vinculin as a loading control.
# [8] = tested on: pAKT; test: Immunoblotting of PATU-8902 FKBP12^F36V-KRAS^G12V; KRAS^−/− clone (Example 8), AKT signaling; conditions: 50 or 500 nM, 4 hrs
# Protocol: as §2
# [9] = tested on: pERK; test: Immunoblotting of PATU-8902 FKBP12^F36V-KRAS^G12V; KRAS^−/− clone (Example 8), ERK signaling; conditions: 50 or 500 nM, 4 hrs
# Protocol: as §2
# [10] = tested on: LACZ-FKBP12^F36V; test: Immunoblotting of PATU-8902 LACZ-FKBP12^F36V clone (Example 6); conditions: 50 or 500 nM, 4 hrs
# Protocol: as §2, with “LACZ-FKBP12^F36V” for “FKBP12^F36V-KRAS^G12V; KRAS^−/−”, “HA (hemagglutinin)” for “HA”, “LACZ-FKBP12^F36V degradation” for “FKBP12^F36V-KRAS^G12V degradation, total and phosphorylated ERK to evaluate changes in ERK signaling, total and phosphorylated AKT to evaluate changes in AKT signaling”
# [11] = tested on: PATU-8902 LACZ-FKBP12^F36V clone; test: Cell transformation by growth in ultra-low attachment conditions, PATU-8902 LACZ-FKBP12^F36V control clone (Example 13); conditions: 0.000063-2 μM, 120 hrs
# Protocol: as §3, with “format in ultra-low attachment conditions,” for “format,”, “form 3D-spheroids” for “adhere”, “120” for “72”, “transformation, Cell Tilter-Glo®” for “viability, CellTilter-Glo®”, “room temperature” for “r.t.”
# [12] = tested on: PATU-8902 FKBP12^F36V-KRAS^G12V; KRAS^−/− clone; test: Anti-proliferation via CellTiter-Glo, PATU-8902 FKBP12^F36V-KRAS^G12V; KRAS^−/− clone (Example 12); conditions: 0.000063-2 μM, 72 hrs
# Protocol: as §3, with “Cell Tilter-Glo®” for “CellTilter-Glo®”
# [13] = tested on: FKBP12^F36V-KRAS^G12V; test: Immunoblotting of PATU-8902 FKBP12^F36V-KRAS^G12V; KRAS^−/− clone with carfilzomib or MLN4924 pre-treatment (Example 9); conditions: 500 nM, 4 hrs
# Protocol: PATU-8902 FKBP12^F36V-KRAS^G12V; KRAS^−/− clone was plated in 6-well format, allowed to adhere overnight, and treated with DMSO, Carflizomib (CARF) or MLN4924 (MLN) prior to treatment with DMSO or compound 1 for 4 hrs. Following treatment, cells were lysed in RIPA buffer on ice for 60 minutes. Lysates were clarified by centrifugation at 20,000×g for 10 minutes at 4° C. Immunoblotting was performed to determine changes in protein levels with an Odyssey CLx Imager. The indicated antibodies were employed including HA to monitor FKBP12^F36V-KRAS^G12V degradation and α-TUBULIN as a loading control.
# [14] = tested on: FKBP12^F36V-GFP; test: Immunoblotting of EWS502 FKBP12^F36V-GFP cells; conditions: dTAG-13 10-5000 nM, compound 1 50-5000 nM, 24 hrs
# Protocol: as §4
# [15] = tested on: FKBP12^F36V-KRAS^G12V; test: Immunoblotting of 293T^WT FKBP12^F36V-KRAS^G12V cells; conditions: 50 or 500 nM, 24 hrs
# Protocol: (§5) 293T^WT or 293T^VHL−/− FKBP12^F36V-KRAS^G12V cells were plated in 6-well format, allowed to adhere overnight, and treated with 50 nM and 500 nM dTAG molecules for 24 hrs. Following treatment, cells were lysed in RIPA buffer on ice for 60 minutes. Lysates were clarified by centrifugation at 20,000×g for 10 minutes at 4° C. Immunoblotting was performed to determine changes in protein levels with an Odyssey CLx Imager. The indicated antibodies were employed including HA to monitor FKBP12^F36V-KRAS^G12V degradation and α-TUBULIN as a loading control.
# [16] = tested on: PATU-8902 LACZ-FKBP12^F36V clone; test: Anti-proliferation via CellTiter-Glo, PATU-8902 LACZ-FKBP12^F36V control clone (Example 11); conditions: 0.00063-20 μM, 72 hrs
# Protocol: as §3
# [17] = tested on: FKBP12^F36V-KRAS^G12V; test: Immunoblotting of 293T^VHL−/− FKBP12^F36V-KRAS^G12V cells; conditions: 50 or 500 nM, 24 hrs
# Protocol: as §5
degradation of CDK9 (immunoblot) [1],Compound,degradation of FKBP12^F36V-KRAS^G12V (immunoblot) [2],anti-proliferative effects / loss of cell viability (% DMSO control) [3],anti-proliferative effects on LACZ-FKBP12^F36V control clone [4],degradation of LACZ-FKBP12^F36V (immunoblot) [5],"loss of cell transformation (3D-spheroids, % DMSO control) [6]",degradation of FKBP12^F36V-EWS/FLI (immunoblot) [7],pAKT levels (immunoblot) [8],pERK levels (immunoblot) [9],degradation of LACZ-FKBP12^F36V (immunoblot) [10],effects on cell transformation of LACZ-FKBP12^F36V control clone [11],anti-proliferative effects / loss of cell viability (% DMSO control) [12],degradation of FKBP12^F36V-KRAS^G12V (immunoblot) ([13]; DMSO pre-treatment),degradation of FKBP12^F36V-KRAS^G12V after pre-treatment with Nedd8 activating enzyme inhibitor MLN4924 (MLN) ([13]; MLN4924 pre-treatment),degradation of FKBP12^F36V-KRAS^G12V after pre-treatment with proteasome-inhibitor carfilzomib (CARF) ([13]; carfilzomib pre-treatment),degradation of FKBP12^F36V-GFP (immunoblot) [14],degradation of FKBP12^F36V-KRAS^G12V in 293T^WT cells (immunoblot) [15],anti-proliferative effects on LACZ-FKBP12^F36V control clone [16],degradation of FKBP12^F36V-KRAS^G12V in 293T^VHL−/− cells (immunoblot) [17]
potent degradation,CC(C)(C)c1cnc(CSc2cnc(NC(=O)C3CCN(CC(=O)NCCOCCOCCOCCNc4cccc5c4C(=O)N(C4CCC(=O)NC4=O)C5=O)CC3)s2)o1 (stereo not shown) [THAL-SNS-032],–,–,–,–,–,–,–,–,–,–,–,–,–,–,–,–,–,–
–,"CC[C@H](C(=O)N1CCCC[C@H]1C(=O)O[C@H](CCc1ccc(OC)c(OC)c1)c1ccccc1OCC(=O)NCCCCCCC(=O)N[C@H](C(=O)N1C[C@H](O)C[C@H]1C(=O)N[C@@H](C)c1ccc(-c2scnc2C)cc1)C(C)(C)C)c1cc(OC)c(OC)c(OC)c1 [Compound 1, (R)-3-(3,4-dimethoxyphenyl)-1-(2-(2-((7-(((S)-1-((2S,4R)-4-hydroxy-2-(((S)-1-(4-(4-methylthiazol-5-yl)phenyl)ethyl)carbamoyl)pyrrolidin-1-yl)-3,3-dimethyl-1-oxobutan-2-yl)amino)-7-oxoheptyl)amino)-2-oxoethoxy)phenyl)propyl (S)-1-((S)-2-(3,4,5-trimethoxyphenyl)butanoyl)piperidine-2-carboxylate]",potent degradation,Effective loss of viability; also recorded: potent anti-proliferative effects,limited effects,potent degradation,Effective loss of viability; also recorded: potent loss of cell transformation,potent degradation,pronounced diminished levels,pronounced diminished levels,rapid degradation; also recorded: potent degradation,limited effects,Effective loss of viability; also recorded: potent anti-proliferative effects,potent degradation,rescued,rescued,Degradation of GFP (control) is observed; also recorded: potent degradation,potent degradation,limited effects,not and did not degrade

# Reference: patent US20220089589A1, “SMALL MOLECULE DEGRADERS OF FKBP12 VIA RECRUITMENT OF VON HIPPEL-LINDAU E3 UBIQUITIN LIGASE (VHL) E3 UBIQUITIN LIGASE, AND USES IN dTAG SYSTEMS” (DANA-FARBER CANCER INSTITUTE, INC., priority 2019, published 2022)
